Test results reported in PMC9289467, “A Novel Multifunctional 5,6-Dimethoxy-Indanone-Chalcone-Carbamate Hybrids Alleviates Cognitive Decline in Alzheimer’s Disease by Dual Inhibition of Acetylcholinesterase and Inflammation” (Frontiers in Aging Neuroscience, 2022).

Assays:
TNF-α, IL-6, IL-1β = experiment: ELISA of proinflammatory cytokines, APP/PS1 mice; type: in vivo; conditions: TBS fraction, AP5 40 mg/kg once daily 5 months
Method: (§1) APP/PS1 mice of ages 6 months were randomly divided into vehicle (APP/PS1, n = 10) and treatment groups (AP5, n = 10), which were intragastrically administered with AP5 (40 mg/kg) once daily for consecutive 5 months. AP5 was dissolved in distilled water containing 1% sodium carboxymethyl cellulose.
For detecting the pathological soluble or insoluble Aβ in mice, sequential extractions were performed as follows: the half of right hippocampus and cortex from three groups were homogenized in TBS solution containing 5 mM EDTA, phosphatase inhibitor (P1050, Beyotime, Shanghai, China), and protease inhibitor cocktail (P1010, Beyotime) followed by centrifugation at 25,000g at 4°C for 1 h. The supernatant was collected as a TBS fraction and the resulting pellet was solubilized in 70% formic acid (FA), sonicated until the lysis buffer was clear, followed by centrifugation at 25,000g at 4°C for 1 h. The supernatant was collected as the FA fraction and neutralized (1:20) in a neutralization buffer (1 M tris base, 0.5 M Na2HPO4, 0.05% NaN3). Human Aβ40 and Aβ42 were determined by ELISA kits (E-EL-H0452c and E-EL-H0453c, Elabscience, Wuhan, China) in accordance with the manufacturer’s instructions. In addition, the levels of IL-1β (88-7013-88, Invitrogen), IL-6 (EK206HS-96, Multi sciences, HangZhou, China), and TNF-α (88-7324-88, Invitrogen) in TBS fraction were also determined by ELISA.

[1] = Single-dose pharmacokinetics in mice (plasma and brain, UPLC-TSQ/MS); type: in vivo, C57BL/6J mice; conditions: mouse
Method: To determine the pharmacokinetics of AP5 in mice, the mice were administered a single dose of AP5 by i.v. and oral gavage dose routes. The plasma and brain homogenate were detected by UPLC-TSQ/MS(Thermo Fisher Scientific, Waltham, MA, United States). The plasma drug concentrations were analyzed for PK data by DAS (Drug and Statistics) Version 3.0 (BioGuider Corporation, Shanghai, China). Bioavailability (F%) after oral administration was calculated as AUCINF p.o./AUCINF i.v./4 × 100. AUCINF p.o. and AUCINF i.v. represent the area under the plasma concentration–time curve extrapolated to infinity after single-dose per os and intravenous injection, respectively. The extent of brain penetration was measured by the brain-to-plasma distribution ratio (B/P). The B/P value was calculated as: AUCINFbrain/AUCINF plasma × 100. AUCINF brain represents the area under the brain concentration–time curve extrapolated to infinity after a single-dose per os.
We next determine the pharmacokinetic profile of AP5 in male C57BL/6J mice given a single intravenous (i.v.) dose of 10 mg/kg or single per os (p.o.) dose of 40 mg/kg, respectively. […] Importantly, we determined AP5 in the brain homogenate with the highest concentration of 95.3 ng/mL at 2 h (Figures 1D,E). […]
Supplementary materials and methods
Prepations ofspecimen for pharmacokinetics analysis
24 h afterdosing. Brains were collected at0, 0.25, 0.5,2, 4,8 and 24 h after administration.Plasma extractions were performed by adding 90 μL methanol and 2 μL internalstandard letrozole (500 ng/mL) to a30 µL plasma sample. Brain samples were homogenized in 1 mL PBS per gram brain tissueby handheld homogenizer.
Then 90 μL methanol and 2 μL letrozolewere added to 30 µl brainhomogenates. The samples were vortexed for 3 min and centrifuged 15 min at25,000 g.The plasma and brainhomogenate were analyzed by UPLC-TSQ/MS (Thermo Fisher Scientific, Waltham, MA, USA). Samples were compared to a calibrationcurve prepared ina similarmanner by spiking blank controlplasma or homogenate with standards prepared inmethanol and then extractedas above. […]

recognition memory = experiment: Spatial object location task; type: in vivo; conditions: at 24 h, vs APP/PS1 mice without treatment
Method: as §1
To investigate whether AP5 treatment plays a key role in cognition improvement of APP/PS1 mice models, the five different behavioral tests were sequentially carried out in the following order: open field, novel object recognition task, spatial object-location task, Y-maze, and Morris water maze (MWM). AP5 was also administered daily during the test periods. […]
For the spatial object location task (an object moved to a new location), mice first explored the two objects placed in two corners of the open field for 5 min in training period. After 1 h or 24 h, the mice received a 5 min retention trial with a new spatial configuration with an object moved from one corner to the opposite corner of the open field.The discrimination index was calculated and defined as: (time spent exploring the displaced object-time spent exploring nondisplaced objects) / total exploration time for the two objects during the 5 min retention trial. […]
guided to platform and allowed to stay on it for 30 s. The time (escape latency) for each mouse to find the way and reach the target platform was analyzed. […]

[2] = male, C57BL/6J, brain homogenate, po, brain, p.o. 40 mg/kg
[3] = male, C57BL/6J, iv, plasma, i.v. 10 mg/kg
[4] = male, C57BL/6J, plasma, iv, 10 mg/kg, i.v. 10 mg/kg
[5] = male, C57BL/6J, plasma, po, 40 mg/kg, p.o. 40 mg/kg
[6] = male, C57BL/6J, po, plasma, p.o. 40 mg/kg

CCN(C)C(=O)Oc1cccc(/C=C2\Cc3cc(OC)c(OC)cc3C2=O)c1 [AP5, (E)-3-((5,6-dimethoxy-1-oxo-1,3-dihydro-2H-inden-2-ylidene)-methyl)phenylethyl(methyl)carbamate]
IL-1β level (TNF-α, IL-6, IL-1β): markedly reduced
IL-6 level (TNF-α, IL-6, IL-1β): markedly reduced
TNF-α level (TNF-α, IL-6, IL-1β): markedly reduced
B/P (brain-to-plasma distribution ratio, brain penetration) ([1]; AUCINF brain/AUCINF plasma × 100, p.o. 40 mg/kg, 40 mg/kg): 10.23%
Cl ([1]; brain, p.o. 40 mg/kg): 896.2 mL/min/kg
Vss ([1]; brain, p.o. 40 mg/kg): 412.6 L/kg
AUC(0-inf) [1, 2]: 744 ng·h/mL
AUC(0-t) [1, 2]: 706 ng·h/mL
half-life [1, 2]: 5.32 h
AUC(0-inf) [1, 3]: 2700 ng·h/mL
AUC(0-t) [1, 3]: 2600 ng·h/mL
clearance [1, 3]: 125 mL/min/kg
half-life [1, 3]: 3.34 h
Vd ([1]; male, C57BL/6J, iv, plasma, i.v. 10 mg/kg, read-out: Vss): 36.3 L/kg
Tmax ([1]; male, C57BL/6J, brain homogenate, po, 40 mg/kg, brain, p.o. 40 mg/kg): 1.5 h
Cmax ([1]; male, C57BL/6J, brain homogenate, po, 40 mg/kg, p.o. 40 mg/kg): 95.4 ng/mL
Kp ([1]; male, C57BL/6J, brain/plasma, po, 40 mg/kg, AUCINF brain/AUCINF plasma × 100, p.o. 40 mg/kg, read-out: B/P (brain-to-plasma distribution ratio, brain penetration)): > 0.1
Cmax [1, 4]: 5440 ng/mL
Tmax [1, 4]: 0.083 h
Cmax [1, 5]: 2090 ng/mL
Tmax [1, 5]: 2 h
bioavailability ([1]; male, C57BL/6J, plasma, oral, AUCINF p.o./AUCINF i.v./4 × 100, p.o. 40 mg/kg, i.v. 10 mg/kg, read-out: F (oral bioavailability)): 67.2%
AUC(0-inf) [1, 6]: 7260 ng·h/mL
AUC(0-t) [1, 6]: 6990 ng·h/mL
half-life [1, 6]: 4.72 h
Cl ([1]; plasma, p.o. 40 mg/kg): 45.93 mL/min/kg
Vss ([1]; plasma, p.o. 40 mg/kg): 18.79 L/kg
discrimination index, spatial object location (recognition memory): significantly better
